Source: patent US20230265151A1, “GIP/GLP1 CO-AGONIST COMPOUNDS” (priority 2020, published 2023)
Read-outs that look alike come from different tables or passages of the source. *1 amine or outer side, *2 acyl side, *3 side chain or, on linkers, in order; H or OH if unused. Where a SMILES comes first, the peptide text is derived from it. Side-chain parts run from the residue outwards. [ ]: non-standard residue; d: D form. The star is where a group is joined. αMePhe(2-F) = C[C@](N)(Cc1ccccc1F)C(=O)O; γGlu = O=C(O)[C@H](CCC(=O)[*:2])N[*:1]; C14 diacid = O=C(O)CCCCCCCCCCCCC(=O)*; αMeY = C[C@](N)(Cc1ccc(O)cc1)C(=O)O; 4Pal = N[C@@H](Cc1ccncc1)C(=O)O; αMeL = CC(C)C[C@](C)(N)C(=O)O; Lauroyl = CCCCCCCCCCCC(=O)*; Orn = NCCC[C@H](N)C(=O)O; AEEA = NCCOCCOCC(=O)O; Aib = CC(C)(N)C(=O)O

Assays:
Format in all cases: cell-based
hGIPR = target: T1, hGIPR (Homo sapiens, UniProt P48546); assay: Functional cAMP formation (HTRF) in HEK-293 clonal cells expressing hGIPR, 0.1% bovine casein, without or with 1.0% human serum albumin; details: for EC50: geometric mean, read-out: hGIPR EC50, nM (SEM, n); for Emax: percent of maximal response to GIP(1-42)NH2, read-out: hGIPR Emax, % ± SEM
T1 construct: expressed in transfected cells
T1 sequence (P48546 22-466): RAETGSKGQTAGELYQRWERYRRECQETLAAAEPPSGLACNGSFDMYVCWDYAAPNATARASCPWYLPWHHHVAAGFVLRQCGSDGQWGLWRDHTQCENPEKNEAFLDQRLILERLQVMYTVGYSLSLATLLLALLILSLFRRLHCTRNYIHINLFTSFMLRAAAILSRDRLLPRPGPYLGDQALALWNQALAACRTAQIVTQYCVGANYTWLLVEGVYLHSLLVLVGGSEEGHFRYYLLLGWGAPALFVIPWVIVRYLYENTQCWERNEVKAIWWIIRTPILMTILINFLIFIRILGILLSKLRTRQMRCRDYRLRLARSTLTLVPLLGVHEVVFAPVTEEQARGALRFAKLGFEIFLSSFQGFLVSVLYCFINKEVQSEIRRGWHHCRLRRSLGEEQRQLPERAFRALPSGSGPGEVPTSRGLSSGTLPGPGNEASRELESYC
Method in brief: (§1)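 Readings of the HTRF 665/620 nm ratio, which falls as cAMP rises, were converted to nM cAMP using a standard curve after 30 min peptide exposure at 37° C.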

hGCGR = target: T2, hGCGR (Homo sapiens, UniProt P47871); assay: Functional cAMP formation (HTRF) in HEK-293 clonal cells expressing hGCGR, 0.1% bovine casein, without or with 1.0% human serum albumin; details: geometric mean, read-out: hGCGR EC50, nM (SEM, n)
T2 construct: expressed in transfected cells
Method in brief: as §1

hGLP-1R = hGLP-1R (Homo sapiens, UniProt P43220); assay: Functional cAMP formation (HTRF) in HEK-293 clonal cells expressing hGLP-1R, 0.1% bovine casein, without or with 1.0% human serum albumin; set-up: expressed in transfected cells; details: for Emax: read-out: hGLP-1R Emax, % ± SEM; for EC50: geometric mean, read-out: hGLP-1R EC50, nM (SEM, n)
Method in brief: as §1

[1] = 0.1% bovine casein and 1.0% human serum albumin, 37° C.
[2] = HEK293, 0.1% bovine casein and 1.0% human serum albumin, 37° C.
[3] = cAMP, incubated at 37° C., 0.1% bovine casein (no human serum albumin)
[4] = HEK293, 0.1% bovine casein and 1.0% human serum albumin, 37° C., percent of maximal response to GLP-1(7-36)NH2
[5] = cAMP, 37° C., 0.1% bovine casein (no human serum albumin)

T2 sequence (P47871 26-477): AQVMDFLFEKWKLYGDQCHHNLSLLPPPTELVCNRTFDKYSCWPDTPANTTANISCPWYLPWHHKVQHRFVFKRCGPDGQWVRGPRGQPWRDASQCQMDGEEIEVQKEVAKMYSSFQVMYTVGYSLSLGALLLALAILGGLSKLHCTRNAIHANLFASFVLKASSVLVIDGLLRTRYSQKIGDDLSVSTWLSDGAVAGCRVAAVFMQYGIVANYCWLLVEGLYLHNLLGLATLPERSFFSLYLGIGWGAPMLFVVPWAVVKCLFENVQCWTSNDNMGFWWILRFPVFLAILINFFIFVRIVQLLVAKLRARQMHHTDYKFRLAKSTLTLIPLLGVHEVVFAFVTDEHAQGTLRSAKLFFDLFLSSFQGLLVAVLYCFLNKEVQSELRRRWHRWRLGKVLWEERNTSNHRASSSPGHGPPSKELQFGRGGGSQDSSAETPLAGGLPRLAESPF
hGLP-1R, sequence (P43220 24-463): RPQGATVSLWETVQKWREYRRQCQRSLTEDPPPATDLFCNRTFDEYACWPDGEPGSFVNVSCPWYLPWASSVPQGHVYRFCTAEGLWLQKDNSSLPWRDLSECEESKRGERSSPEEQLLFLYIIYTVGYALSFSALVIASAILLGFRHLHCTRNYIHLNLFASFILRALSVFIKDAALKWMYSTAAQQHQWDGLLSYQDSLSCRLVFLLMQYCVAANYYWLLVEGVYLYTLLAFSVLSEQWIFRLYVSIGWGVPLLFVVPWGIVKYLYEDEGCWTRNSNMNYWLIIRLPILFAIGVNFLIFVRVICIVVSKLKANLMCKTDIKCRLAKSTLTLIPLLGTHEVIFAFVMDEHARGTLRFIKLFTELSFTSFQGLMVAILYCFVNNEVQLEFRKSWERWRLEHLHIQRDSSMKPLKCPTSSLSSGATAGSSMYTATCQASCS

Row | Emax (hGIPR; HEK293, cAMP, 37° C., 0.1% bovine casein, arithmetic mean) | EC50 (hGIPR; [5]) | EC50 (hGCGR; [5]) | EC50 (hGLP-1R; [1]) | Emax (hGLP-1R; HEK293, cAMP, 37° C., 0.1% bovine casein, percent of maximal response to GLP-1(7-36)NH2, arithmetic mean) | EC50 (hGLP-1R; [5]) | SMILES | EC50 (hGIPR; [1]) | Emax (hGIPR; [2]) | EC50 (hGIPR; [3]) | EC50 (hGCGR; [1]) | EC50 (hGCGR; [3]) | Emax (hGLP-1R; [4]) | Emax (hGLP-1R; HEK293, percent of maximal response to GLP-1(7-36)NH2, 37° C., 0.1% bovine casein, arithmetic mean) | EC50 (hGLP-1R; [3])
1 | – | – | – | – | – | – | CC[C@H](C)[C@H](NC(=O)[C@H](CCCN)NC(=O)[C@H](CC(=O)O)NC(=O)[C@H](CC(C)C)NC(=O)[C@](C)(CC(C)C)NC(=O)[C@@H](NC(=O)[C@H](CO)NC(=O)[C@H](Cc1ccncc1)NC(=O)[C@H](CC(=O)O)NC(=O)[C@H](CO)NC(=O)[C@@H](NC(=O)[C@](C)(Cc1ccccc1F)NC(=O)[C@@H](NC(=O)CNC(=O)[C@H](CCC(=O)O)NC(=O)C(C)(C)NC(=O)[C@@H](N)Cc1ccc(O)cc1)[C@@H](C)O)[C@@H](C)O)[C@@H](C)CC)C(=O)N[C@@H](C)C(=O)N[C@@H](CCC(N)=O)C(=O)NC(C)(C)C(=O)N[C@@H](CCC(=O)O)C(=O)N[C@@H](Cc1ccccc1)C(=O)N[C@H](C(=O)N[C@H](CCC(=O)O)C(=O)N[C@@](C)(Cc1ccc(O)cc1)C(=O)N[C@@H](CC(C)C)C(=O)N[C@H](C(=O)N[C@@H](CCCCNC(=O)COCCOCCNC(=O)COCCOCCNC(=O)CCCCCCCCCCCCC(=O)O)C(=O)NCC(=O)NCC(=O)N1CCC[C@H]1C(=O)N[C@@H](CO)C(=O)N[C@@H](CO)C(=O)NCC(=O)N[C@@H](C)C(=O)N1CCC[C@H]1C(=O)N1CCC[C@H]1C(=O)N1CCC[C@H]1C(=O)N[C@@H](CO)C(=O)N[C@@H](CCCCNC(=O)COCCOCCNC(=O)COCCOCCNC(=O)CCCCCCCCCCCCC(=O)O)C(N)=O)[C@@H](C)CC)[C@@H](C)CC [Example 223] (H-Y[Aib]EGT[αMePhe(2-F)]TSD[4Pal]SI[αMeL]LD[Orn]IAQ[Aib]EFI[dE][αMeY]LIK([AEEA-AEEA-C14 diacid])GGPSSGAPPPSK([AEEA-AEEA-C14 diacid])-NH2) | 7.84 nM | 79.2% | 0.0252 nM | > 9950 nM | > 9950 nM | 115% | 94% | 1.43 nM
2 | 100% | 0.0121 nM | > 9950 nM | 13 nM | 109% | 0.108 nM | CCCCCCCCCCCC(=O)N[C@@H](CCC(=O)NCCOCCOCC(=O)NCCOCCOCC(=O)NCCCC[C@H](NC(=O)[C@H](CCCN)NC(=O)[C@H](CC(=O)O)NC(=O)[C@H](CC(C)C)NC(=O)[C@](C)(CC(C)C)NC(=O)[C@@H](NC(=O)[C@H](CO)NC(=O)[C@H](Cc1ccncc1)NC(=O)[C@H](CC(=O)O)NC(=O)[C@H](CO)NC(=O)[C@@H](NC(=O)[C@](C)(Cc1ccccc1F)NC(=O)[C@@H](NC(=O)CNC(=O)[C@H](CCC(=O)O)NC(=O)C(C)(C)NC(=O)[C@@H](N)Cc1ccc(O)cc1)[C@@H](C)O)[C@@H](C)O)[C@@H](C)CC)C(=O)N[C@@H](C)C(=O)N[C@@H](CCC(N)=O)C(=O)NC(C)(C)C(=O)N[C@@H](CCC(=O)O)C(=O)N[C@@H](Cc1ccccc1)C(=O)N[C@H](C(=O)N[C@H](CCC(=O)O)C(=O)N[C@@](C)(Cc1ccc(O)cc1)C(=O)N[C@@H](CC(C)C)C(=O)N[C@H](C(=O)N[C@@H](CCCCNC(=O)COCCOCCNC(=O)COCCOCCNC(=O)CC[C@H](NC(=O)CCCCCCCCCCC)C(=O)O)C(=O)NCC(=O)NCC(N)=O)[C@@H](C)CC)[C@@H](C)CC)C(=O)O [Example 296] (H-Y[Aib]EGT[αMePhe(2-F)]TSD[4Pal]SI[αMeL]LD[Orn]K([AEEA-AEEA-γGlu-Lauroyl])AQ[Aib]EFI[dE][αMeY]LIK([AEEA-AEEA-γGlu-Lauroyl])GG-NH2; N-terminus assumed) | 0.823 nM | 91.9% | – | > 9950 nM | – | 109% | – | –
